# Measurements as given in patent publication US8404283B2, “Standardized plant extract, process for obtaining the same and uses thereof” (Eurofarma Laboratorios Ltda, priority 2007, dated 2013).
# Tests used:
# mice = conditions: cited from earlier work
# Swiss Webster mice [1] = assay: abdominal contortion model induced by acetic acid; type: in vivo; conditions: oral administration; for DI50: dose reducing response by 50%, 95% limits; for IM (%): inhibition of number of contortions
# Procedure: The experimental acetic acid induced abdominal contortion model allows assessment of the antinociceptive activity of various substances that act both at central and peripheral levels. Nociceptive response is induces by the intraperitonal injection of acetic acid (0.6%) diluted in saline solution (0.9%). The abdominal contortions consist in the contraction of the abdominal muscles combined with the extension of one of the rear paws.
# Each analysis was performed using 8 to 10 male animals (Swiss Webster mice) weighing between 25 and 30 g. The dose was calculated individually for each animal with the quantity in mg/kg (mg/1.000 g) of the substance to be administrated being in accordance to its weight. The injected volume of the solutions followed the rule of 0.1 ml/10 g of the animal's weight.
# (§1) Parametric statistical tests were performed on the models described above. The results were submitted to ANOVA variance analysis followed by appropriate post hoc tests. […] The statistical analyses of the results were performed by means of variance analysis followed by the multiple comparison test using the Dunnett method, when appropriate. Values of p<0.05 were considered to indicate significance. The DI50 was estimated by means of individual experiments using GraphPad Instat statistical software.
# Swiss Webster mice [2] = assay: formalin induced pain model (Phase I, Phase II, edema); type: in vivo; conditions: oral administration
# Description: This model is more specific than the acetic acid induced abdominal contortion model. It allows the assessment of two distinct types of pain: the pain of neurogenic origin (direct stimulation of the nociceptive neurons) and of inflammatory origin, representing the tonic response to pain, accompanied by an inflammatory response related to the release of chemical inflammation mediators. […] Immediately after the formalin injection, the animals were placed under a glass dome surrounded by mirrors in order to facilitate observation of the ensuing behaviour. Observation commenced immediately, initially timing the reaction to pain during the first 5 minutes after the formalin injection (corresponding to the period of neurogenic pain). Following an interval of 10 minutes, the licking times were recorded for a further 15 minutes (corresponding to the inflammatory pain). Total test time was of 30′.
# At the end of this observation period, the animals were sacrificed by cervical displacement and the rear paws were removed at the tibiotarsal region and weighed on an analytical balance to quantify the edema induced by the formalin. The difference in weight (in mg) between the right paw (injected with formalin) and the left paw (injected with saline) was considered the rate of edema. […] Each analysis was performed using 8 to 10 male animals (Swiss Webster mice) weighing between 25 and 30 g.
# The dose was calculated individually for each animal with the quantity in mg/kg (mg/1.000 g) of the substance to be administrated being in accordance to its weight. The injected volume of the solutions followed the rule of 0.1 ml/10 g of the animal's weight.
# The animals were observed after the intraplantar injection of formalin for a period of 30 minutes. The reaction time (time in which the animal remains licking the injected paw) is then quantified in each of the phases: phase I (neurogenic pain—5 min observation) and phase II (inflammatory pain—15 min observation).
# as §1
Compound,"analgesia, potency relative to aspirin (mice; Meyre-Silva et al. 1999)",DI50 (Swiss Webster mice [1]) [mg/kg],IM (%) (Swiss Webster mice [1]),DI50 (Swiss Webster mice [2]; Edema) [mg/kg],IM (%) (Swiss Webster mice [2]; Edema),DI50 (Swiss Webster mice [2]; Phase I (neurogenic)) [mg/kg],IM (%) (Swiss Webster mice [2]; Phase I (neurogenic)),DI50 (mg/kg) (Swiss Webster mice [2]; Phase II (inflammatory)),IM (%) (Swiss Webster mice [2]; Phase II (inflammatory)),DI50 (mg/kg) (Swiss Webster mice [2]; Phase I (neurogenic)),"analgesic effect on acetic acid induced abdominal contortions (mice; Meyre-Silva et al. 1998, 1999)"
COc1cc2oc(-c3ccc(O)cc3)cc(=O)c2c(O)c1[C@@H]1O[C@H](CO)[C@@H](O)[C@H](O)[C@H]1O[C@@H]1O[C@@H](C)[C@H](O)[C@@H](O)[C@H]1O [2″-O-rhamnosylswertisin],approximately 16 times,–,–,–,–,–,–,–,–,–,–
CC(=O)Oc1ccccc1C(=O)O [AAS],–,364.1,64.5,>500,31.7,>500,12.7,408.87 (391.47-427.03) mg/kg,65.7,–,–
O=C(O)Cc1ccccc1Nc1c(Cl)cccc1Cl [Diclophenac],–,443.07,51.6,>500,33.7,–,68.8,–,82.5,407.48 (357.56-464.37) mg/kg,–
COc1ccc2c(c1)c(CC(=O)O)c(C)n2C(=O)c1ccc(Cl)cc1 [Indomethacin],–,189.95,72.0,>300,36.5,>300,7.2,263.42 (239.83-289.35) mg/kg,53.1,–,–
COc1cc2oc(-c3ccc(O)cc3)cc(=O)c2c(O)c1[C@@H]1O[C@H](CO)[C@@H](O)[C@H](O)[C@H]1O [swertisin],–,–,–,–,–,–,–,–,–,–,did not have an analgesic effect
